Reference: PMC11045757, “Group 3 medulloblastoma transcriptional networks collapse under domain specific EP300/CBP inhibition” (Nature Communications, 2024)
Where “and” joins values, the source holds several entries; their conditions need not be identical. Equal values may be shown once. Read-outs that look alike come from different tables or passages of the source.

Assays:
[1] = tested on: HDMB03 (HDMBO3) group 3 medulloblastoma cells; assay: CellTiter-Glo dose-response growth assay; assay type: cell-based; conditions: HDMBO3 G3MB cell growth; read-out: IC50 (nM) HDMBO3
Description: CellTiter-Glo assay was performed as per the manufacturer’s instructions, at the noted timepoint after compound treatment or plating. For Kelly, TE617T, RhJT, NCIH2122, NCIH650 and 143B, 500 cells were plated in normal growth media per well in a 384-well plate (Corning). HDMB03 and MB002 cells were plated in growth media at 500 cells/well in a 384-well plate. […] Cells were incubated for the noted timepoints prior to performing CellTiter-Glo assay as per the manufacturer’s instructions, and reading plates on an Envision 2104 microplate reader.

[2] = biological target: GFP-tagged CBP bromodomain (Homo sapiens, UniProt Q92793); assay: Microscale thermophoresis (MST); assay type: binding; conditions: for Response (Dose Response Curve): MST raw response
GFP-tagged CBP bromodomain, sequence (Q92793 1085-1192 limits assumed): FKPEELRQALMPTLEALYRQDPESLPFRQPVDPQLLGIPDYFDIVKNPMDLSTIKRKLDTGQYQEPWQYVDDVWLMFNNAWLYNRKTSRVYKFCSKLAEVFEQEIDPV
Description: MST experiments were performed in a Monolith NT.115 Pico instrument (NanoTemper Technologies) following published procedures. […] MST traces were recorded using standard parameters: 5 s MST power off, 30 s MST power on and 5 s MST power off. Measurements were taken at -1-0 s (cold region) and 10 s (hot region) and data were analyzed using the NTAnalysis software.

[3] = tested on: CBP bromodomain; assay: Differential scanning fluorimetry (DSF) thermal shift; assay type: binding; conditions: ΔTm (CBP)/ΔTm(BRD4)
Description: (§1) After 18 h growth, the culture was harvested by centrifugation at 6000 × g for 25 min and stored at -80 °C. Harvested cell pellets were re-suspended in 50 mM Na/K phosphate buffer (pH 7.4) containing 100 mM NaCl, 40 mM imidazole, 0.01% w/v lysozyme and 0.01% v/v Triton X-100 at 4 °C for 1 h, subjected to sonication and the lysate was clarified by centrifugation (30,000 × g for 45 min at 4 °C). Proteins were purified by FPLC at 4 °C using columns and chromatography materials from GE Healthcare. […] Proteins were purified to homogeneity by size exclusion chromatography using Superdex 75 equilibrated with elution buffer (50 mM HEPES pH 7.5, 100 mM NaCl, 2 mM DTT). […] Pool fractions were combined, concentrated to 10–12 mg/ml, and aliquots were flash-frozen in liquid N2 and stored at −80 °C.
(§2) DSF experiments were performed with an Applied Biosystem StepOnePlus real-time PCR system (Thermo Fisher Scientific) using 96-well format plates, assayed in quadruplicate. For thermal shift determination, 5 μM protein was mixed with 100 μM compound in 50 mM HEPES, pH 7.5, 150 mM NaCl, 2 mM DTT, 2% DMSO, 5X SYPRO Orange (Thermo Fisher Scientific) in 20 μL reaction volumes.

[4] = biological target: T1, CBP bromodomain (Homo sapiens, UniProt Q92793); assay: as above; assay type: binding; conditions: for ∆Tm (°C) CBP / ΔTm (°C) CBP: DSF; for ∆Tm (°C) CBP: 5 μM protein, 100 μM compound, three independent experiments, average ± SD
T1 construct: CBP (residues 1081-1197); 6xHis (cleaved yes); host or cells: E. coli BL21 (DE3) RIL
T1 sequence (Q92793 1081-1197): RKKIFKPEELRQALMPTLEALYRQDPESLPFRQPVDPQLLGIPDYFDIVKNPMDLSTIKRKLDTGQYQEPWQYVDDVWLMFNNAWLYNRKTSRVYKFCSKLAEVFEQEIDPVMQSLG
Description: as §1, §2

[5] = biological target: T2, EP300 bromodomain (Homo sapiens, UniProt Q09472); assay: as above; assay type: binding; conditions: DSF
T2 construct: 6xHis (cleaved yes); host or cells: E. coli BL21 (DE3) RIL
T2 sequence (Q09472 1048-1161): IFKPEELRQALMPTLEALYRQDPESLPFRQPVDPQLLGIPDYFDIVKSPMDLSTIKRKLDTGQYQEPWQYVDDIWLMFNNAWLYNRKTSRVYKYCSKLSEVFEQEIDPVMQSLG
Description: (§3) At OD600 of 0.6, the culture was cooled down to 18 °C and induced with 0.1 mM IPTG. After 18 h growth, the culture was harvested by centrifugation at 6000 × g for 25 min and stored at -80 °C. Harvested cell pellets were re-suspended in 50 mM Na/K phosphate buffer (pH 7.4) containing 100 mM NaCl, 40 mM imidazole, 0.01% w/v lysozyme and 0.01% v/v Triton X-100 at 4 °C for 1 h, subjected to sonication and the lysate was clarified by centrifugation (30,000 × g for 45 min at 4 °C). Proteins were purified by FPLC at 4 °C using columns and chromatography materials from GE Healthcare. […] Proteins were purified to homogeneity by size exclusion chromatography using Superdex 75 equilibrated with elution buffer (50 mM HEPES pH 7.5, 100 mM NaCl, 2 mM DTT). All BRDs eluted as monomeric protein and were of crystallization grade quality (>95% purity as judged by SDS-PAGE). Pool fractions were combined, concentrated to 10–12 mg/ml, and aliquots were flash-frozen in liquid N2 and stored at −80 °C.
as §2, with “volumes. Reaction mixtures were heated from 25 to 95 °C at 1 °C/min with fluorescence readings every 0.5 °C at 610 nm. The observed thermal shift (ΔTm) was recorded as the difference between the Tm of sample and DMSO reference wells.” for “volumes.”

[6] = biological target: T3, BRD4-BD1 (BRD4-1) (Homo sapiens, UniProt O60885); assay: as above; assay type: binding; conditions: DSF; for ∆Tm (°C) BRD4-1: 5 μM protein, 100 μM compound, three independent experiments, average ± SD
T3 construct: BRD4-BD1 (residues 44-168); 6xHis (cleaved yes); host or cells: E. coli BL21 (DE3) RIL
Description: as §3
as §2, with “volumes. Reaction mixtures were heated from 25 to 95 °C at 1 °C/min with fluorescence readings every 0.5 °C at 610 nm. The observed thermal shift (ΔTm) was recorded as the difference between the Tm of sample and DMSO reference wells.” for “volumes.”

Question: Which results are given for `COC1CCC(n2c(C3CCCC(=O)N3c3cccc(C(F)F)c3)nc3cc(-c4c(C)noc4C)ccc32)CC1` (centres unmarked) [Compound 3]?
Answer: IC50 [1]: 156 ± 63 nM; Response (Dose Response Curve) ([2]; Dose 7.6294e-11, single replicate run, listed as iCBP-1): 853.223 and 857.66 and 855.66; Response (Dose Response Curve) ([2]; Dose 1.52588e-10, single replicate run, listed as iCBP-1): 855.736 and 856.23 and 855.826; Response (Dose Response Curve) ([2]; Dose 3.05176e-10, single replicate run, listed as iCBP-1): 853.445 and 855.178 and 855.494; Response (Dose Response Curve) ([2]; Dose 6.10352e-10, single replicate run, listed as iCBP-1): 856.427 and 856.757 and 853.917; Response (Dose Response Curve) ([2]; Dose 1.2207e-9, single replicate run, listed as iCBP-1): 856.018 and 857.281 and 855.418; Response (Dose Response Curve) ([2]; Dose 2.44141e-9, single replicate run, listed as iCBP-1): 854.643 and 857.895 and 854.619; Response (Dose Response Curve) ([2]; Dose 4.88281e-9, single replicate run, listed as iCBP-1): 855.403 and 855.962 and 856.044; Response (Dose Response Curve) ([2]; Dose 9.76563e-9, single replicate run, listed as iCBP-1): 854.71 and 855.519 and 854.572; Response (Dose Response Curve) ([2]; Dose 1.95313e-8, single replicate run, listed as iCBP-1): 854.478 and 856.32 and 852.68; Response (Dose Response Curve) ([2]; Dose 3.90625e-8, single replicate run, listed as iCBP-1): 853.805 and 853.804 and 852.557; Response (Dose Response Curve) ([2]; Dose 7.8125e-8, single replicate run, listed as iCBP-1): 851.041 and 853.265 and 851.047; Response (Dose Response Curve) ([2]; Dose 1.5625e-7, single replicate run, listed as iCBP-1): 849.783 and 852.179 and 850.016; Response (Dose Response Curve) ([2]; Dose 3.125e-7, single replicate run, listed as iCBP-1): 847.514 and 851.349 and 849.816; Response (Dose Response Curve) ([2]; Dose 6.25e-7, single replicate run, listed as iCBP-1): 850.56 and 852.488 and 847.121; Response (Dose Response Curve) ([2]; Dose 1.25e-6, single replicate run, listed as iCBP-1): 851.062 and 851.994 and 849.472; Response (Dose Response Curve) ([2]; Dose 2.5e-6, single replicate run, listed as iCBP-1): 852.183 and 853.073 and 851.642; Kd ([2]; MST, single replicate run, target clGFP-CBPBRD, TargetConcentration 5e-8, MST-Power Medium, unit inferred, listed as iCBP-1, read-out: Kd (Fit Results, Fit Model: Kd)): 11.6 nM and 7.49 nM and 11.5 nM; Bound (Fit Results) ([2]; fitted MST response of bound state, single replicate run, target clGFP-CBPBRD 5e-8, listed as iCBP-1): 850.224 and 852.177 and 849.456; Unbound (Fit Results) ([2]; fitted MST response of unbound state, single replicate run, target clGFP-CBPBRD 5e-8, listed as iCBP-1): 855.236 and 856.83 and 855.351; Kd ([2]; three independent MST experiments, average ± SD, read-out: Kd (nM) CBP): 12.1 ± 4.9 nM; Ratio CBP/BRD4 of ∆Tm [3]: 2.8; ∆Tm (°C) CBP [4]: 15.7 ± 0.13 °C; ∆Tm (°C) CBP ([4]; listed as iCBP-1): 15.7 °C; ΔTm (°C) CBP ([4]; Figure 3A, CBP bromodomain): 15.7 °C; ΔTm (°C) CBP ([4]; Figure 3B, CBP): 15.7 °C; DSF ΔTm (°C) ([4]; Figure 3C, DSF (values equal CBP column)): 15.7 °C; ∆Tm (°C) EP300 ([5]; 5 μM protein, 100 μM compound, three independent experiments, average ± SD): 15.2 ± 0.43 °C; ΔTm (°C) EP300 ([5]; Figure 3B, EP300): 15.2 °C; ∆Tm (°C) BRD4-1 [6]: 5.6 ± 0.18 °C; ∆Tm (°C) BRD4-1 ([6]; listed as iCBP-1): 5.6 °C; ΔTm (°C) BRD4-BD1 ([6]; Figure 3A, BRD4-BD1): 5.6 °C
